{
  "source": "patent US7491383B2",
  "about": "“Compositions having enhanced pharmacokinetic characteristics” (Allergan, Inc., priority 2001, dated 2009)",
  "key": {"[1]": {"system": "Rabbit Intraocular Pressure", "conditions": "20 μL of 0.2% on cornea, mean ± S.E.M., n = 8", "excerpt": "In this study, the animals were placed into three groups consisting of a mix of age, size and sex.\nOne group of animals (both sexes) were used per screening study.\nThe following general procedure for administering the test compound employed in this study is presented below: • 1. Make sure that the 0.25% proparacaine Opthetic® mixture (topical local anesthetic), test compounds, and commercially available treats are available. • 2. Turn on the Digilab Modular One™ Pneuma Tonometer (pneumatonometer) [BioRad, Cambridge, Mass.]; it needs approximately 15 minutes to warm up. Turn on gas supply or air pump. • 3. Hold probe vertically with the point tip down and press “calibration check” for “zero”. • 4. Wipe the pneumatonometer probe with an alcohol swab, and inspect the tip membrane for holes. • 5. Set the external calibration device (air or water manometer) to 25 mm Hg, place the pneumatonometer probe in the calibration device to an ensure that it corresponded to 25±2 mm Hg. • 6. Obtain a rabbit. Make sure the recording data sheets are at hand. • 7. Gently restrain the rabbit via a commercial restrainer or a cotton towel. Measure the pupil diameter with the specialized ruler for each eye and record the values on the sheets provided. If the eyes are too dark to obtain a value by this method, a specialized penlight may be used. Obtain a pupil diameter measurement by shining the penlight on the cornea for one second. • 8. Slide the upper eyelid up the thumb and visually assess and score the degree of ocular surface redness. Record the value for each eye on the sheet provided. • 9. Put one drop of 0.25% proparacaine Opthetic® (50:50 mix of 0.5% proparacaine Opthetic®+Cellufresh®) on the surface of each eye. Wait one or more minutes for ophthetic to take effect. • 10. Place the pnematonometer tip on one eye at the site where the curvature of the cornea is greatest. Let the probe shank travel to the black line, not the red line. Persist until a stable reading with the standard deviation below 1.0 is obtained. Repeat the procedure for the contralateral eye. Record the data. (Note: If the animal is upset by the restraint, the reading will be artificially high and cannot be used. Use gentle restraint). • 11. At the end of the 0, 6, 24, 30, 48, 54, 72, 78 and 96 hour measurements, use an automatic pipette to apply 20 μL of the test compound to the surface of the cornea of one eye. After the 102 hour measurements, the eyes will be washed out with Refresh® and Prefrin®. • 12. Give the animal a treat and return the animal to its cage. • 13. Repeat steps 7 to 11 on the remaining animals in the group.\nThe following general procedure for measuring the effects of the test compound employed in this study is as follows: a reading is conducted at 0, 2, 4, 6, 24, 26, 28, 30, 48, 50, 52, 54, 72, 74, 76, 78, 96, 98, 100, and 102 hours. The pneumatonometer is calibrated before use with a manometer and the probe tip is wiped with an alcohol swab. One drop of 0.25% proparacaine Opthetic®, a corneal anesthetic, is placed on the cornea. Allow sufficient time (approximately 1 minute) for it to anesthetize the cornea before placing the probe on the eye. The eye is gently opened by the person doing the tonometer reading. The probe is placed on the cornea at the point of greatest curvature and a stable reading is obtained. The probe is held parallel to the floor and perpendicular to the line of the rabbit's sight. The reading is repeated until a reasonable reading can be obtained. The piston should be between the red and black lines or at the black line on the probe."}, "Intra Ocular Pressure": {"system": "Intra Ocular Pressure", "conditions": "0.131% Brimonidine and 0.126% linoleic acid", "excerpt": "The treatment is an ion pair formulation of 0.131% Brimonidine and 0.126% linoleic acid."}, "monkeys (sedation)": {"system": "monkeys (sedation)", "method": "This study involved cross overs and a one-week wash out in between the administration of the various compounds.\nAs done in a previous experiments, the following method was followed: • 1. 6 trained monkeys were placed in chairs and allowed to acclimate for approximately 30 minutes. • 2. Individual monkeys were brought into the “testing room” where they were allowed to adjust to the new environment for approximately 2 minutes. […] Sedation scores were recorded on an observation sheet. • 3. The monkey were returned to the group of animals assigned to this study. • 4. 2 baseline readings were done at T-0.5 and 0 hour. After the 0 hour reading one drop of the test compound was administered to the right eye. • 5. Steps 2 & 3 were repeated at T=0.5, 1, 2, 3 and 4 hour. • 6. Animals were monitored until they recover from effects of the drug. • 7. […] Test Compound Administration:\nThe scoring was conducted for each animal for the different test compounds. The average results are shown on table 1."}},
  "note": "Read-outs that look alike come from different tables or passages of the source.",
  "data": [
    {"compound": "Brc1c(NC2=NCCN2)ccc2nccnc12.CCCCCC=CCC=CCCCCCCCC(=O)O", "note": "[Brimonidine-linoleic acid]", "values": [
      {"measurement": "INTRAOCULAR PRESSURE", "setting": "[1]; time 0 hr (reading before first dose)", "result": "25.8 ± 1.2", "unit": "mm Hg"},
      {"measurement": "INTRAOCULAR PRESSURE", "setting": "[1]; time 2 hr", "result": "17.1 ± 1.0", "unit": "mm Hg"},
      {"measurement": "INTRAOCULAR PRESSURE", "setting": "[1]; time 4 hr", "result": "21.1 ± 1.0", "unit": "mm Hg"},
      {"measurement": "INTRAOCULAR PRESSURE", "setting": "[1]; time 6 hr (dosed again after reading)", "result": "23.9 ± 1.0", "unit": "mm Hg"},
      {"measurement": "INTRAOCULAR PRESSURE", "setting": "[1]; time 24 hr (dosed after reading)", "result": "25.6 ± 0.5", "unit": "mm Hg"},
      {"measurement": "INTRAOCULAR PRESSURE", "setting": "[1]; time 26 hr", "result": "19.9 ± 0.6", "unit": "mm Hg"},
      {"measurement": "INTRAOCULAR PRESSURE", "setting": "[1]; time 28 hr", "result": "22.9 ± 0.8", "unit": "mm Hg"},
      {"measurement": "INTRAOCULAR PRESSURE", "setting": "[1]; time 30 hr (dosed after reading)", "result": "23.0 ± 1.1", "unit": "mm Hg"},
      {"measurement": "INTRAOCULAR PRESSURE", "setting": "[1]; time 48 hr (dosed after reading)", "result": "26.5 ± 1.0", "unit": "mm Hg"},
      {"measurement": "INTRAOCULAR PRESSURE", "setting": "[1]; time 50 hr", "result": "20.4 ± 0.6", "unit": "mm Hg"},
      {"measurement": "INTRAOCULAR PRESSURE", "setting": "[1]; time 52 hr", "result": "23.4 ± 0.7", "unit": "mm Hg"},
      {"measurement": "INTRAOCULAR PRESSURE", "setting": "[1]; time 54 hr (dosed after reading)", "result": "24.1 ± 0.8", "unit": "mm Hg"},
      {"measurement": "INTRAOCULAR PRESSURE", "setting": "[1]; time 72 hr (dosed after reading)", "result": "26.8 ± 0.9", "unit": "mm Hg"},
      {"measurement": "INTRAOCULAR PRESSURE", "setting": "[1]; time 74 hr", "result": "21.1 ± 0.8", "unit": "mm Hg"},
      {"measurement": "INTRAOCULAR PRESSURE", "setting": "[1]; time 76 hr", "result": "23.9 ± 1.1", "unit": "mm Hg"},
      {"measurement": "INTRAOCULAR PRESSURE", "setting": "[1]; time 78 hr (dosed after reading)", "result": "25.2 ± 0.9", "unit": "mm Hg"},
      {"measurement": "INTRAOCULAR PRESSURE", "setting": "[1]; time 96 hr (dosed after reading)", "result": "27.9 ± 1.1", "unit": "mm Hg"},
      {"measurement": "INTRAOCULAR PRESSURE", "setting": "[1]; time 98 hr", "result": "20.1 ± 1.3", "unit": "mm Hg"},
      {"measurement": "INTRAOCULAR PRESSURE", "setting": "[1]; time 100 hr", "result": "23.9 ± 0.7", "unit": "mm Hg"},
      {"measurement": "INTRAOCULAR PRESSURE", "setting": "[1]; time 102 hr", "result": "25.3 ± 1.6", "unit": "mm Hg"},
      {"measurement": "percent change with time of Intra Ocular Pressure", "setting": "Intra Ocular Pressure; 0 hr (administration of complex)", "result": 0.0, "unit": "mm Hg"},
      {"measurement": "percent change with time of Intra Ocular Pressure", "setting": "Intra Ocular Pressure; 1 hr after administration", "result": "−10.4", "unit": "mm Hg"},
      {"measurement": "percent change with time of Intra Ocular Pressure", "setting": "Intra Ocular Pressure; 2 hr after administration", "result": "−16.0", "unit": "mm Hg"},
      {"measurement": "percent change with time of Intra Ocular Pressure", "setting": "Intra Ocular Pressure; 4 hr after administration", "result": "−9.5", "unit": "mm Hg"},
      {"measurement": "percent change with time of Intra Ocular Pressure", "setting": "Intra Ocular Pressure; 6 hr after administration", "result": "−9.4", "unit": "mm Hg"}
    ]},
    {"compound": "tartrate of 5-bromo-6-(2-imidozolin-2-ylamino) quinoxaline [Brimonidine Tartrate, reference compound]", "values": [
      {"measurement": "sedation compared with the other test compounds (in words)", "setting": "monkeys (sedation); 0.2%, one drop right eye", "result": "more sedation than dosing with Brimonidine-linoleic acid"},
      {"measurement": "SEDATION SCORE (average, scale S=0 to S=4)", "setting": "monkeys (sedation); 0.2%, one drop right eye, time 0 hr (baseline, before dosing)", "result": 0.8},
      {"measurement": "SEDATION SCORE (average, scale S=0 to S=4)", "setting": "monkeys (sedation); 0.2%, one drop right eye, time 0.5 hr", "result": 0.8},
      {"measurement": "SEDATION SCORE (average, scale S=0 to S=4)", "setting": "monkeys (sedation); 0.2%, one drop right eye, time 1 hr", "result": 1.7},
      {"measurement": "SEDATION SCORE (average, scale S=0 to S=4)", "setting": "monkeys (sedation); 0.2%, one drop right eye, time 2 hr", "result": 2.6},
      {"measurement": "SEDATION SCORE (average, scale S=0 to S=4)", "setting": "monkeys (sedation); 0.2%, one drop right eye, time 3 hr", "result": 2.5},
      {"measurement": "SEDATION SCORE (average, scale S=0 to S=4)", "setting": "monkeys (sedation); 0.2%, one drop right eye, time 4 hr", "result": 2.7},
      {"measurement": "SEDATION SCORE (average, scale S=0 to S=4)", "setting": "monkeys (sedation); 0.2%, one drop right eye, time −0.5 hr (baseline)", "result": 0.7},
      {"measurement": "observed state of the monkeys on average", "setting": "monkeys (sedation); usually from the 2-hour time point to the end of observations", "result": "sleepy and inactive with heavy eyes"}
    ]}
  ]
}
